Read-outs that look alike come from different tables or passages of the source.
Assays:
Assay in all cases: Glasshouse assay for herbicidal activity (pre- and post-emergence), percentage phytotoxicity
Type in all cases: in vivo
[1] = test system: Avena fatua (AVEFA); settings: Rate 250 g/ha, 100%=total damage, 0%=no damage; for pest or weed control at 250 g/ha: Avena fatua
Method: (§1) Test—Glasshouse Assay for Herbicidal Activity
(§2) Seeds of a variety of monocotyledonous and dicotyledonous test plants are sown in standard soil in pots. The plants are cultivated for one day (for pre-emergence (PRE)) or for about 12 days (for post-emergence (POST)) under controlled conditions in a glasshouse (warm climate species at 24/18° C., cool climate species at 20/16° C., both at day/night; 16 hours light; 65% humidity).
(§3) The test plants are then grown on, in a glasshouse (greenhouse) under controlled conditions (warm climate species at 24/18° C., cool climate species at 20/16° C., both at day/night; 16 hours light; 65% humidity) and are watered twice daily. 15 days after application of the test herbicide (15 DAA) (for post-emergence), and 20 days after application of the test herbicide (20 DAA) (for pre-emergence), the test plants are evaluated visually, and an assessed percentage phytotoxicity score is given for each herbicidal application on each plant species (with 100%=total damage to plant; 0%=no damage to plant).
(§4) The plant species tested are as follows: Alopecurus myosuroides (ALOMY), Avena fatua (AVEFA), Lolium perenne (LOLPE), Echinochloa crus-galli (ECHCG).

[2] = test system: Lolium perenne (LOLPE); settings: Rate 250 g/ha, 100%=total damage, 0%=no damage; for pest or weed control at 250 g/ha: Lolium perenne
Method: as §1, §2, §3, §4

[3] = test system: Echinochloa crus-galli (ECHCG); settings: Rate 250 g/ha, 100%=total damage, 0%=no damage; for pest or weed control at 250 g/ha: Echinochloa crus-galli
Method: as §1, §2, §3, §4

[4] = test system: Alopecurus myosuroides (ALOMY); settings: Rate 250 g/ha, 100%=total damage, 0%=no damage; for pest or weed control at 250 g/ha: Alopecurus myosuroides
Method: as §1, §2, §3, §4

[5] = post-emergence, assessed visually 15 DAA
[6] = pre-emergence, assessed visually 20 DAA
[7] = post-emergence, 360 h, post-emergence, assessed visually 15 DAA, read-out: Post-emergence herbicidal activity (percentage phytotoxicity) AVEFA POST
[8] = pre-emergence, 480 h, pre-emergence, assessed visually 20 DAA, read-out: Pre-emergence herbicidal activity (percentage phytotoxicity) AVEFA PRE
[9] = post-emergence, 360 h, post-emergence, assessed visually 15 DAA, read-out: Post-emergence herbicidal activity (percentage phytotoxicity) LOLPE POST
[10] = pre-emergence, 480 h, pre-emergence, assessed visually 20 DAA, read-out: Pre-emergence herbicidal activity (percentage phytotoxicity) LOLPE PRE
[11] = post-emergence, 360 h, post-emergence, assessed visually 15 DAA, read-out: Post-emergence herbicidal activity (percentage phytotoxicity) ECHCG POST
[12] = pre-emergence, 480 h, pre-emergence, assessed visually 20 DAA, read-out: Pre-emergence herbicidal activity (percentage phytotoxicity) ECHCG PRE
[13] = post-emergence, 360 h, post-emergence, assessed visually 15 DAA, read-out: Post-emergence herbicidal activity (percentage phytotoxicity) ALOMY POST
[14] = pre-emergence, 480 h, pre-emergence, assessed visually 20 DAA, read-out: Pre-emergence herbicidal activity (percentage phytotoxicity) ALOMY PRE

SMILES | Post-emergence herbicidal activity (percentage phytotoxicity) AVEFA POST [1, 5] | Pre-emergence herbicidal activity (percentage phytotoxicity) AVEFA PRE [1, 6] | Post-emergence herbicidal activity (percentage phytotoxicity) LOLPE POST [2, 5] | Pre-emergence herbicidal activity (percentage phytotoxicity) LOLPE PRE [2, 6] | Post-emergence herbicidal activity (percentage phytotoxicity) ECHCG POST [3, 5] | Pre-emergence herbicidal activity (percentage phytotoxicity) ECHCG PRE [3, 6] | Post-emergence herbicidal activity (percentage phytotoxicity) ALOMY POST [4, 5] | Pre-emergence herbicidal activity (percentage phytotoxicity) ALOMY PRE [4, 6] | pest or weed control at 250 g/ha [1, 7] | pest or weed control at 250 g/ha [1, 8] | pest or weed control at 250 g/ha [2, 9] | pest or weed control at 250 g/ha [2, 10] | pest or weed control at 250 g/ha [3, 11] | pest or weed control at 250 g/ha [3, 12] | pest or weed control at 250 g/ha [4, 13] | pest or weed control at 250 g/ha [4, 14]
Cc1cc(-c2cnc(Cl)cn2)cc(C)c1C1C(=O)CC(CC(=O)NCc2cccc(C(F)(F)F)c2)C1=O (centres unmarked) [Compound A149] | 100% | 100% | 100% | 90% | 100% | 100% | 100% | 80% |  |  |  |  |  |  |  | 
Cc1cc(-c2ncc(F)cc2Cl)cc(C)c1C1C(=O)CC(CC(=O)NCc2cccs2)C1=O (centres unmarked) [Compound A150] |  |  |  |  |  |  |  |  | 90% | 50% | 70% | 80% | 90% | 90% | 70% | 70%
Cc1cc(-c2ccc(Cl)nn2)cc(C)c1C1C(=O)CC(CC(=O)NCc2cccs2)C1=O (centres unmarked) [Compound A151] |  |  |  |  |  |  |  |  | 50% | 70% | 40% | 80% | 70% | 100% | 40% | 40%
Cc1cnc(CNC(=O)CC2CC(=O)C(c3c(C)cc(-c4ncc(Cl)cc4F)cc3C)C2=O)cn1 (centres unmarked) [Compound A152] |  |  |  |  |  |  |  |  | 100% | 100% | 100% | 90% | 90% | 100% | 90% | 70%
Cc1cc(-c2ccc(C(F)(F)F)cn2)cc(C)c1C1C(=O)CC(CC(=O)NCc2cccc(C(F)(F)F)c2)C1=O (centres unmarked) [Compound A153] |  |  |  |  |  |  |  |  | 90% | 70% | 70% | 60% | 90% | 90% | 90% | 30%
Cc1cc(-c2cc(Cl)ccn2)cc(C)c1C1C(=O)CC(CC(=O)NCc2cccc(C(F)(F)F)c2)C1=O (centres unmarked) [Compound A154] |  |  |  |  |  |  |  |  | 90% | 60% | 70% | 80% | 100% | 80% | 80% | 50%
Cc1cc(-c2ccc(Cl)nn2)cc(C)c1C1C(=O)CC(CC(=O)NCc2ncccc2Cl)C1=O (centres unmarked) [Compound A155] |  |  |  |  |  |  |  |  | 70% | 100% | 70% | 70% | 90% | 70% | 50% | 40%
Cc1cc(-c2ccc(C#N)cn2)cc(C)c1C1C(=O)CC(CC(=O)NCc2cccs2)C1=O (centres unmarked) [Compound A156] |  |  |  |  |  |  |  |  | 80% | 70% | 80% | 80% | 100% | 100% | 70% | 60%
Cc1cnc(CNC(=O)CC2CC(=O)C(c3c(C)cc(-c4ncc(F)cn4)cc3C)C2=O)cn1 (centres unmarked) [Compound A157] |  |  |  |  |  |  |  |  | 90% | 70% | 90% | 70% | 100% | 90% | 80% | 60%
Cc1ccc(-c2cc(C)c(C3C(=O)CC(CC(=O)NCc4cccc(C(F)(F)F)c4)C3=O)c(C)c2)nc1 (centres unmarked) [Compound A158] |  |  |  |  |  |  |  |  | 70% | 20% | 80% | 60% | 90% | 80% | 70% | 20%
Cc1cc(C)c(C2C(=O)CC(CC(=O)N(C)CC(C)C)C2=O)c(C)c1 (centres unmarked) [Compound A159] |  |  |  |  |  |  |  |  | 50% | 20% | 90% | 90% | 80% | 90% | 70% | 60%
CCN(C)C(=O)CC1CC(=O)C(c2c(C)cc(C)cc2C)C1=O (centres unmarked) [Compound A160] |  |  |  |  |  |  |  |  | 90% | 80% | 100% | 100% | 90% | 100% | 70% | 70%
Cc1cc(C)c(C2C(=O)CC(CC(=O)N(C)C(C)C)C2=O)c(C)c1 (centres unmarked) [Compound A161] |  |  |  |  |  |  |  |  | 30% | 30% | 90% | 100% | 80% | 100% | 70% | 20%
Cc1cc(C)c(C2C(=O)CC(CC(=O)N3CCCC3)C2=O)c(C)c1 (centres unmarked) [Compound A162] |  |  |  |  |  |  |  |  | 90% | 70% | 100% | 100% | 90% | 100% | 90% | 70%
Cc1cc(C)c(C2C(=O)CC(CC(=O)N3CCSCC3)C2=O)c(C)c1 (centres unmarked) [Compound A163] |  |  |  |  |  |  |  |  | 30% | 30% | 60% | 60% | 70% | 70% | 30% | 10%
Cc1cc(C)c(C2C(=O)CC(C(C)C(=O)NC(C)(C)C)C2=O)c(C)c1 (centres unmarked) [Compound A164] |  |  |  |  |  |  |  |  | 70% | 10% | 60% | 60% | 70% | 70% | 70% | 70%
Cc1cc(C)c(C2C(=O)CC(C(C)C(=O)NCc3cccs3)C2=O)c(C)c1 (centres unmarked) [Compound A165] |  |  |  |  |  |  |  |  | 80% | 0% | 80% | 70% | 90% | 100% | 60% | 60%
Cc1cc(C)c(C2C(=O)CC(C(C)C(=O)NCc3cccc(C(F)(F)F)c3)C2=O)c(C)c1 (centres unmarked) [Compound A166] |  |  |  |  |  |  |  |  | 70% | 20% | 70% | 70% | 90% | 70% | 40% | 40%
Cc1cc(C)c(C2C(=O)CC(C(C)C(=O)NCc3ncccc3Cl)C2=O)c(C)c1 (centres unmarked) [Compound A167] |  |  |  |  |  |  |  |  | 70% | 10% | 60% | 80% | 80% | 80% | 20% | 20%

— patent US10206394B2, “Herbicidal compounds” (Syngenta Participations AG, priority 2014, dated 2019)
